Source: patent US8592428B2 (MSD K. K., priority 2008, dated 2013)
Values after ≈ are worked out from the molar mass of the structure shown.

Tests used:
[1] = molecular target: T1, recombinant human liver GK (Homo sapiens, UniProt P35557); experiment: Glucokinase-activating effect (Thio-NADH coupled G6PDH assay); assay type: biochemical; settings: final glucose concentration 2.5 mM, 30° C.; for Emax: OD level of DMSO control = 100%
T1 construct: made in house; host or cells: E. coli
T1 sequence (P35557 1-466 isoform P35557-2): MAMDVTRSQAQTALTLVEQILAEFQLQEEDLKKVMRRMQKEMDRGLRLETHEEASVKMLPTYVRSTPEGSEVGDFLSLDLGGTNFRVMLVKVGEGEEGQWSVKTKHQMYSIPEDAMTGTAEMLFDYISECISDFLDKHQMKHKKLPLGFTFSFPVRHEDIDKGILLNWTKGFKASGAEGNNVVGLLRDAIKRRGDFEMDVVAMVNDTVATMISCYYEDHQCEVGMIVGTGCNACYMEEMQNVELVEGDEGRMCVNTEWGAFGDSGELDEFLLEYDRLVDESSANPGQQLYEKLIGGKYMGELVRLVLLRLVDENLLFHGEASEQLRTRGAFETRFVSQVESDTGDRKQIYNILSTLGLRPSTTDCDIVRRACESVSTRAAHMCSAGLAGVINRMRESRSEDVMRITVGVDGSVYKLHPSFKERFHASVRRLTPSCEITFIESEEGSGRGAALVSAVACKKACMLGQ
Description: The excellent glucokinase-activating effect of the compounds of formula (I) may be determined by a method described in literature (for example, Diabetes, Vol. 45, pp. 1671-1677, 1996), or in accordance with it.
The glucokinase activity may be determined not by directly measuring glucose-6-phosphate but by measuring the level of Thio-NADH, which is produced when a reporter enzyme, glucose-6-phosphate dehydrogenase produces phosphogluconolactone from glucose-6-phosphate, and based on the level, the degree of glucokinase activation by the compound tested may be determined.
In this assay, used was a recombinant human liver GK, which was expressed by E. coli as a FLAG fusion protein therein and was purified by […] M2 AFFINITY GEL (Sigma).
Using a flat-bottomed 96-well plate, the assay was carried out at 30° C. 69 μl of an assay buffer (25 mM Hepes Buffer/pH=7.2, 2 mM MgCl2, 1 mM ATP, 0.5 mM TNAD, 1 mM dithiothreitol) was put into the plate, and 1 μl of a DMSO solution of the compound or DMSO alone as a control was added thereto. Next, 20 μl of an enzyme mixture (FLAG-GK, 20 U/ml G6PDH) cooled in ice was added to it, and 10 μl of a substrate, 25 mM glucose was added to it, and the reaction was initiated (final glucose concentration=2.5 mM).
After the start of the reaction, the increase in the absorbance at 405 nm was measured for 12 minutes at intervals of 30 seconds, and the increase for the first 5 minutes was used for assessing the compound tested. FLAG-GK was added so that the absorbance increase after 5 minutes in the presence of 1% DMSO could be from 0.04 to 0.06.
The OD level of the DMSO control was set as 100%; and the OD level of the test compound at different concentrations was determined. From the OD level at each concentration, Emax (%) and EC50 (μM) were computed and used as the index of the GK-activating potency of the compound.

[2] = Solubility in water by solution precipitation method (HPLC); assay type: physicochemical; settings: water (2% DMSO), kinetic from dmso stock, from 10 mM DMSO solution, 60 minutes stirring at room temperature, compounds of the present invention
Method: For solubility in water, the solubility of a compound in water was determined by a solution precipitation method.
For an HPLC system, Agilent HPLC 1100 system was used. […] For a shaker, Microincubator M-36 (Taitec) was used. For a plate, a 96-deep well plate (Nunc. 260252) was used. For a well cap, Pre-Slit Well Cap for 96 Well PP (NALGENE. 276011) was used. For a filtration plate, MultiScreen Solubility (Millipore; MSSLBPC10) was used. For dispensation, an 8-channel electronic multipipette, Biohit Proline (Biohit), and a 96-well automatic pipetting device, Biomeck 2000 (Biomeck) were used. For a reagent used, a pure solvent for DMSO ultraviolet absorption spectrum (Dojindo 349-01025) and water (MiliQ water, manufactured by Millipore).
For a DMSO solution, a sample was prepared with DMSO to be precisely 10 mM.
Precise dispensation of 10 μL of a DMSO solution into each well of a 96-well plate was performed. Following addition of 490 μL of water to each of the wells and plate-sealing with 96-well Cap (Agilent No. 5042-1389), intense stirring processing of the plate was performed for 60 minutes at room temperature on a shaker. Subsequently, 200 μL of a treatment sample was added to a plate for centrifugal filtration, and centrifugal filtration of the sample was performed to obtain a filtrate. A sample solution was made by adding 200 μl, of a 50% aqueous acetonitrile solution to the provided filtrate.
Precise dispensation of 10 μL of a DMSO solution into each well of a 96-well plate was performed.
Detection was performed using a multi-wavelength detector (190-370 nm). For a column, the above-mentioned column was used at 40° C. A flow rate was set at 1.2 ml/min, and an amount of an injected sample at 20 μL. For a moving phase, a 0.1% aqueous phosphoric acid solution as a liquid A and acetonitrile as a liquid B were used to carry out analyses in accordance with a time schedule described below.
For the analyses, the data of UV 275 nm were adopted. […] Using the calibration curve, regression calculation of concentrations in water was carried out from Area of sample solutions (water).

EC50 [1] [nM] | solubility at 60 min [2] [µM] | Emax [1] [%] | SMILES
170 | > 170 |  | COCc1ccc(Oc2cc3cc(-c4cnc(CO)cn4)[nH]c3cc2[C@H]2CCCN2C(C)=O)cn1 [Example 16, 6-[(R)-1-acetylpyrrolidin-2-yl]-2-(5-hydroxymethylpyrazin-2-yl)-5-(6-methoxymethylpyridin-3-yloxy)-1H-indole]
120 | > 170 |  | CC(=O)N1CCC[C@@H]1c1cc2[nH]c(-c3cnc(C)cn3)cc2cc1Oc1ccc(S(C)(=O)=O)nc1 [Example 3, 6-[(R)-1-acetylpyrrolidin-2-yl]-5-(6-methylsulfonylpyridin-3-yloxy)-2-(5-methylpyrazin-2-yl)-1H-indole]
120 | > 170 | 957 | CCN(CC)C(=O)c1ccc(Oc2cc3cc(-c4cnccn4)[nH]c3cc2[C@H]2CCCN2C(C)=O)cn1 [Example 27]
80 | > 170 | 988 | COCc1ccc(Oc2cc3cc(-c4cnccn4)[nH]c3cc2[C@H]2CCCN2C(C)=O)cn1 [Example 17, 6-[(R)-1-acetylpyrrolidin-2-yl]-5-(6-methoxymethylpyridin-3-yloxy)-2-(pyrazin-2-yl)-1H-indole]
180 | > 170 | 943 | CC(=O)N1CCC[C@@H]1c1cc2[nH]c(-c3ccn(C)n3)cc2cc1Oc1ccc(S(C)(=O)=O)nc1 [Example 4, 6-[(R)-1-acetylpyrrolidin-2-yl]-2-(1-methyl-1H-pyrazol-3-yl)-5-(6-methylsulfonylpyridin-3-yloxy)-1H-indole]
130 | 152 (≈ 81.2 µg/mL) |  | CC(=O)N1CCC[C@@H]1c1cc2[nH]c(-c3ccc(C(C)(C)O)cn3)cc2cc1Oc1ccc(S(C)(=O)=O)nc1 [Example 9, 6-[(R)-1-acetylpyrrolidin-2-yl]-2-[5-(1,1-dimethylhydroxymethyl)pyridin-2-yl]-5-(6-methylsulfonylpyridin-3-yloxy)-1H-indole]
